Assay results taken from US12209072B2, “Cyclopentyl acids as LPA antagonists” (BRISTOL-MYERS SQUIBB COMPANY, priority 2018, dated 2025).

Target: T1, human LPA1 (Homo sapiens, UniProt Q92633)
T1 construct: expressed in transfected cells; host or cells: Chinese hamster ovary (CHO) cells
Test: LPA1 functional antagonist assay (LPA-induced calcium flux)
Format: cell-based
Settings: CHO cells overexpressing human LPA1; inhibition of calcium flux induced by 10 nM LPA; read-out: hLPA1 IC50
Procedure: The effectiveness of compounds of the present invention as LPA1 inhibitors can be determined in an LPA1 functional antagonist assay as follows:
Chinese hamster ovary cells overexpressing human LPA1 were plated overnight (15,000 cells/well) in poly-D-lysine coated 384-well microplates (Greiner bio-one, Cat #781946) in DMEM/F12 medium (Gibco, Cat #11039). Following overnight culture, cells were loaded with calcium indicator dye (AAT Bioquest Inc, Cat #34601) for 30 minutes at 37° C. The cells were then equilibrated to room temperature for 30 minutes before the assay. Test compounds solubilized in DMSO were transferred to 384 well non-binding surface plates (Corning, Cat #3575) using the Labcyte Echo acoustic dispense and diluted with assay buffer [1×HBSS with calcium/magnesium (Gibco Cat #14025-092), 20 mM HEPES (Gibco Cat #15630-080) and 0.1% fatty acid free BSA (Sigma Cat #A9205)] to a final concentration of 0.5% DMSO. Diluted compounds were added to the cells by FDSS6000 (Hamamatsu) at final concentrations ranging from 0.08 nM to 5 μM. and were then incubated for 20 min at room temperature at which time LPA (Avanti Polar Lipids Cat #857130C) was added at final concentrations of 10 nM to stimulate the cells. The compound IC50 value was defined as the concentration of test compound which inhibited 50% of the calcium flux induced by LPA alone. IC50 values were determined by fitting data to a 4-parameter logistic equation (GraphPad Prism, San Diego CA).

T1 sequence (Q92633 whole entry): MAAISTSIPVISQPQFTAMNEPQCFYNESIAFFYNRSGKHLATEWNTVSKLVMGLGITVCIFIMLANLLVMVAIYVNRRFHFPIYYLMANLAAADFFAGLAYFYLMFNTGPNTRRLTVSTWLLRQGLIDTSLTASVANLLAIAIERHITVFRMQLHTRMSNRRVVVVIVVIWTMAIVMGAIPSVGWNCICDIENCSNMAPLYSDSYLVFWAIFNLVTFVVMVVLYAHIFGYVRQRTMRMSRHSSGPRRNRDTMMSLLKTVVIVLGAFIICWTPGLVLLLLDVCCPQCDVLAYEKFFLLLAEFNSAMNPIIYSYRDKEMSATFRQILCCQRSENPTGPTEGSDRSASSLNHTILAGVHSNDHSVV

| SMILES | IC50 [nM] |
| --- | --- |
| CCCN(C)C(=O)OCc1c(-c2ccc(O[C@H]3CC[C@H](CC(=O)O)C3)c(C)n2)nnn1C (racemic) [Example 54, (±)-trans-2-[3-({2-methyl-6-[1-methyl-5-({[methyl(propyl)carba-moyl]oxy}methyl)-1H-1,2,3-triazol-4-yl]pyridin-3-yl}oxy)cyclopentyl]acetic acid] | 292 |
| Cc1nc(-c2nnn(C)c2COC(=O)N(C)CC(C)C)ccc1O[C@H]1CC[C@H](CC(=O)O)C1 (racemic) [Example 55, (±)-trans-2-[3-({2-methyl-6-[1-methyl-5-({[methyl(2-methylpropyl)carbamoyl]oxy}methyl)-1H-1,2,3-triazol-4-yl]pyridin-3-yl}oxy)cyclo-pentyl]acetic acid] | 135 |
| Cc1nc(-c2nnn(C)c2COC(=O)N(C)C2CCCC2)ccc1O[C@H]1CC[C@H](CC(=O)O)C1 (racemic) [Example 56, (±)-trans-2-[3-({6-[5-({[cyclopentyl(methyl)carbamoyl]oxy}methyl)-1-methyl-1H-1,2,3-triazol-4-yl]-2-methylpyridin-3-yl}oxy)cyclopentyl]acetic acid] | 89 |
| Cc1nc(-c2nnn(C)c2COC(=O)N(C)C2(C)CC2)ccc1O[C@H]1CC[C@H](CC(=O)O)C1 (racemic) [Example 57, (±)-trans-2-[3-({2-methyl-6-[1-methyl-5-({[methyl(1-methylcyclo-propyl)carbamoyl]oxy}methyl)-1H-1,2,3-triazol-4-yl]pyridin-3-yl}oxy)cyclopentyl]acetic acid] | 295 |
| CCC1(N(C)C(=O)OCc2c(-c3ccc(O[C@H]4CC[C@H](CC(=O)O)C4)c(C)n3)nnn2C)CC1 (racemic) [Example 58, (±)-trans-2-[3-({6-[5-({[(1-ethylcyclo-propyl)(methyl)carbamoyl]oxy}methyl)-1-methyl-1H-1,2,3-triazol-4-yl]-2-methylpyridin-3-yl}oxy)cyclo-pentyl]acetic acid] | 479 |
| Cc1nc(-c2nnn(C)c2CNC(=O)OCC2(C)CC2)ccc1O[C@H]1CC[C@H](CC(=O)O)C1 (racemic) [Example 59, (±)-trans-2-[3-[(2-methyl-6-{1-methyl-5-[({[(1-methylcyclopropyl)methoxy]carbonyl}amino)methyl]-1H-1,2,3-triazol-4-yl}pyridin-3-yl)oxy]cyclo-pentyl]acetic acid] | 276 |
| CCC1(COC(=O)NCc2c(-c3ccc(O[C@H]4CC[C@H](CC(=O)O)C4)c(C)n3)nnn2C)CC1 (racemic) [Example 60, (±)-trans-2-[3-[(6-{5-[({[(1-ethyl-cyclopropyl)methoxy]carbonyl}amino)methyl]-1-methyl-1H-1,2,3-triazol-4-yl}-2-methylpyridin-3-yl)oxy]cyclopentyl]acetic acid] | 264 |
| Cc1nc(-c2nnn(C)c2COC(=O)N2CCC3(CCC3)C2)ccc1O[C@H]1CC[C@H](CC(=O)O)C1 (racemic) [Example 61, (±)-trans-2-[3-({6-[5-({6-azaspiro[3.4]octane-6-carbonyloxy}methyl)-1-methyl-1H-1,2,3-triazol-4-yl]-2-methylpyridin-3-yl}oxy)cyclopentyl]acetic acid] | 444 |
| CCCC1(COC(=O)NCc2c(-c3ccc(O[C@H]4CC[C@H](CC(=O)O)C4)c(C)n3)nnn2C)CCC1 (racemic) [Example 62, (±)-trans-2-[3-[(2-methyl-6-{1-methyl-5-[({[(1-propylcyclobutyl)methoxy]carbonyl}amino)methyl]-1H-1,2,3-triazol-4-yl}pyridin-3-yl)oxy]cyclo-pentyl]acetic acid] | 183 |
| Cc1nc(-c2nnn(C)c2COC(=O)N(C)C2CCC2)ccc1O[C@H]1CC[C@H](CC(=O)O)C1 (racemic) [Example 63, (±)-trans-2-[3-({6-[5-({[cyclobutylmethyl-1H-1,2,3-triazol-4-yl]-2-(methyl)carbamoyl]oxy}methyl)-1-methylpyridin-3-yl}oxy)cyclopentyl]acetic acid] | 96 |
| Cc1nc(-c2nnn(C)c2COC(=O)N(C)CCCCF)ccc1O[C@H]1CC[C@H](CC(=O)O)C1 (racemic) [Example 64, (±)-trans-2-[3-({6-[5-({[(4-fluoro-butyl)(methyl)carbamoyl]oxy}methyl)-1-methyl-1H-1,2,3-triazol-4-yl]-2-methylpyridin-3-yl}oxy)cyclo-pentyl]acetic acid] | 165 |
| Cc1nc(-c2nnn(C)c2COC(=O)N(C)CCCF)ccc1O[C@H]1CC[C@H](CC(=O)O)C1 (racemic) [Example 65, (±)-trans-2-[3-({6-[5-({[(3-fluoro-propyl)(methyl)carbamoyl]oxy}methyl)-1-methyl-1H-1,2,3-triazol-4-yl]-2-methylpyridin-3-yl}oxy)cyclo-pentyl]acetic acid] | 944 |
| Cc1nc(-c2nnn(C)c2COC(=O)N2CC3(CCC3)C2)ccc1O[C@H]1CC[C@H](CC(=O)O)C1 (racemic) [Example 66, (±)-trans-2-[3-({6-[5-({2-azaspiro[3.3]heptane-2-carbonyloxy}methyl)-1-methyl-1H-1,2,3-triazol-4-yl]-2-methylpyridin-3-yl}oxy)cyclopentyl]acetic acid] | 452 |
| Cc1nc(-c2nnn(C)c2COC(=O)N2CCC3(CC3)C2)ccc1O[C@H]1CC[C@H](CC(=O)O)C1 (racemic) [Example 67, (±)-trans-2-[3-({6-[5-({5-azaspiro[2.4]heptane-5-carbonyloxy}methyl)-1-methyl-1H-1,2,3-triazol-4-yl]-2-methylpyridin-3-yl}oxy)cyclopentyl]acetic acid] | 770 |
| CCCCN(C)C(=O)OCc1c(-c2nc(C)c(O[C@H]3CC[C@H](CC(=O)O)C3)cc2F)nnn1C (racemic) [Example 68, (±)-trans-2-[3-({6-[5-({[butyl(methyl)carbamoyl]oxy}methyl)-1-methyl-1H-1,2,3-triazol-4-yl]-5-fluoro-2-methyl-pyridin-3-yl}oxy)cyclopentyl]acetic acid] | 147 |
| Cc1nc(-c2nnn(C)c2COC(=O)N(C)C2CCCC2)c(F)cc1O[C@H]1CC[C@H](CC(=O)O)C1 (racemic) [Example 69, (±)-trans-2-[3-({6-[5-({[cyclopentyl(methyl)carbamoyl]oxy}methyl)-1-methyl-1H-1,2,3-triazol-4-yl]-5-fluoro-2-methylpyridin-3-yl}oxy)cyclopentyl]acetic acid] | 210 |
| Cc1nc(-c2nnn(C)c2COC(=O)N(C)CC2CCC2)c(F)cc1O[C@H]1CC[C@H](CC(=O)O)C1 (racemic) [Example 70, (±)-trans-2-[3-({6-[5-({[(cyclobutyl-methyl)(methyl)carbamoyl]oxy}methyl)-1-methyl-1H-1,2,3-triazol-4-yl]-5-fluoro-2-methyl-pyridin-3-yl}oxy)cyclopentyl]acetic acid] | 220 |
| Cc1noc(-c2ccc(O[C@H]3CC[C@@H](C(=O)O)C3)cc2)c1COC(=O)N(C)C1CCCC1 (racemic) [Example 71, (±)-cis-3-{4-[4-({[cyclopentyl(methyl)carbamoyl]oxy}methyl)-3-methyl-1,2-oxazol-5-yl]phenoxy}cyclopentane-1-carboxylic acid] | 205 |
| Cc1noc(-c2ccc(O[C@H]3CC[C@H](C(=O)O)C3)cc2)c1COC(=O)N(C)CCC(C)C (racemic) [Example 72, (±)-trans-3-{4-[3-methyl-4-({[methyl(3-methylbutyl)carbamoyl]oxy}methyl)-1,2-oxazol-5-yl]phenoxy}cyclopentane-1-carboxylic acid] | 254 |
| Cc1noc(-c2ccc(O[C@H]3CC[C@@H](C(=O)O)C3)cc2)c1COC(=O)N(C)CCC(C)C (racemic) [Example 73, (±)-cis-3-{4-[3-methyl-4-({[methyl(3-methylbutyl)carbamoyl]oxy}methyl)-1,2-oxazol-5-yl]phenoxy}cyclo-pentane-1-carboxylic acid] | 1180 |
| Cc1nc(-c2nnn(C)c2COC(=O)N(C)CC2CCC2)ccc1O[C@H]1CC[C@@H](C(=O)O)C1 (racemic) [Example 74, (±)-cis-3-({6-[5-({[cyclobutylmethyl)(methyl)carbamoyl]oxy}methyl)-1-methyl-1H-1,2,3-triazol-4-yl]-2-methylpyridin-3-yl}oxy)cyclopentane-1-carboxylic acid] | 101 |
| Cc1nc(-c2nnn(C)c2COC(=O)N(C)CC2CCC2)ccc1O[C@H]1CC[C@H](C(=O)O)C1 (racemic) [Example 75, (±)-trans-3-({6-[5-({[(cyclobutyl-methyl)(methyl)carbamoyl]oxy}methyl)-1-methyl-1H-1,2,3-triazol-4-yl]-2-methylpyridin-3-yl}oxy)cyclo-pentane-1-carboxylic acid] | 42.5 |
| Cc1nc(-c2onc(C)c2COC(=O)N(C)C2CCCC2)ccc1O[C@H]1CC[C@@H](C(=O)O)C1 (racemic) [Example 76, (±)-cis-3-({6-[4-({[cyclopentyl(methyl)carbamoyl]oxy}methyl)-3-methyl-1,2-oxazol-5-yl]-2-methyl-pyridin-3-yl}oxy)cyclopentane-1-carboxylic acid] | 40 |
